Laboratory results: US20250066383A1, “PDE 7 MODULATOR COMPOUNDS” (Omeros Corporation, priority 2023, published 2025)

Tests used:
[1] = target: PDE7A (Homo sapiens (Human), UniProt Q13946); experiment: PDE7A assay: inhibition of PDE7A hydrolysis of [3H]cAMP to [3H]AMP (scintillation proximity, yttrium silicate beads); assay type: biochemical; settings: 16 nM [3H]cAMP, 30° C., 20 minutes; read-out: PDE 7A IC50
Protocol: (§1) PDE7A and PDE7B Assay. Compounds were tested for their activity by measuring the inhibition of PDE7A or PDE7B hydrolysis of [3H]cAMP to [3H]AMP. Generally, eight dilutions of compound were assayed in 50 mM Tris-HCl pH 7.5, 8.3 mM MgCl2, 0.5 mg/mL BSA, 1.7 mM EGTA, 16 nM [3H]cAMP, and 1% DMSO. PDE7A or PDE7B (typically 1-5 ng/mL) (BPS BioSciences, CA) is added to initiate the reaction. The reaction was incubated at 30° C. for 20 minutes. PDE7A and PDE7B hydrolysis was terminated by the addition of yttrium silicate beads (GE Healthcare, RPNQ0150) and counted on a Wallac Microbeta scintillation counter, 1-2 hours following the addition of the beads. Data was analyzed using XLfit […] from which ICso values were obtained.

[2] = target: PDE7B (Homo sapiens (Human), UniProt Q9NP56); experiment: PDE7B assay: inhibition of PDE7B hydrolysis of [3H]cAMP to [3H]AMP (scintillation proximity, yttrium silicate beads); assay type: biochemical; settings: 16 nM [3H]cAMP, 30° C., 20 minutes; read-out: PDE 7B IC50
PDE7B, sequence (Q9NP56 whole entry): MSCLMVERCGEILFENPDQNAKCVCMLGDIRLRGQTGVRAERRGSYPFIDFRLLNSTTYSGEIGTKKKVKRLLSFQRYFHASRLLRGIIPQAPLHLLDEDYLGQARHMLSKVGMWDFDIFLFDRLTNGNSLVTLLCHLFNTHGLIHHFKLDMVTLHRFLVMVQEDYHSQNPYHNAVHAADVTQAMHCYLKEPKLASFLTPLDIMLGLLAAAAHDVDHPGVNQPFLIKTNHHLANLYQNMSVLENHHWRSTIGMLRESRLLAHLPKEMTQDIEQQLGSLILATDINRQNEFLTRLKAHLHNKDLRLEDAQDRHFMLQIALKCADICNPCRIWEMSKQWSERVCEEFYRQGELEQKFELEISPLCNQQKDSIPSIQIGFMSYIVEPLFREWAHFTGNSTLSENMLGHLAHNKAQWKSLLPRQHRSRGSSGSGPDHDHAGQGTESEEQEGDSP
Protocol: as §1

PDE7A, sequence (Q13946 whole entry): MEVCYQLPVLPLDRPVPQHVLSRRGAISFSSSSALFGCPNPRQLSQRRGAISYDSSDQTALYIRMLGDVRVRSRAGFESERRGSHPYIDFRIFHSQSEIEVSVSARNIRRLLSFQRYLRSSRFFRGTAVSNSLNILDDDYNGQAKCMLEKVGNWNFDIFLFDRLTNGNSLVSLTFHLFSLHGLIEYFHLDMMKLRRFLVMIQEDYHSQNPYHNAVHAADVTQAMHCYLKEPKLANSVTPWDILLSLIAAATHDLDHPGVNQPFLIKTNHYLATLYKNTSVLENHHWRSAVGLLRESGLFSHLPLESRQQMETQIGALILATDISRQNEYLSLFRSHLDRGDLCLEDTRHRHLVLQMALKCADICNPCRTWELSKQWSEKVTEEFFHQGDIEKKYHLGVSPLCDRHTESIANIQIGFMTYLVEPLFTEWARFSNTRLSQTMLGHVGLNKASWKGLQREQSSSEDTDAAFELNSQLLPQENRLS

Row | SMILES | IC50 [1] [nM] | IC50 [2] [nM]
1 | Cc1nn(CC(C)C)c2sc(C(=O)N[C@H]3CC[C@H](N4CC(OC(F)F)C4)CC3)cc12 [II-44, N-((1r,4r)-4-(3-(difluoromethoxy)-azetidin-1-yl)cyclo-hexyl)-1-isobutyl-3-methyl-1H-thieno [2,3-c]pyrazole-5-carboxamide] | 30 to 100 | 100 to 500
2 | CC(=O)N1CCN([C@H]2C[C@H](NC(=O)c3cc4c(C)nn(-c5ccccc5Cl)c4s3)C2)CC1 [Compound I-5, N-((1r,3r)-3-(4-acetyl-piperazin-1-yl)cyclo-butyl)-1-(2-chlorophen-yl)-3-methyl-1H-thieno [2,3-c]pyrazole-5-carboxamide] | 30 to 100 | 30 to 100
3 | Cc1nn(CC2CCC2)c2sc(C(=O)N[C@H]3CC[C@H](N4CCN(C5CC5)CC4)CC3)cc12 [II-20, 1-(cyclobutylmethyl)-N-((1r,4r)-4-(4-cyclopropylpiperazin-1-yl)cyclohexyl)-3-methyl-1H-thieno [2,3-c]pyrazole-5-carboxamide] | 30 to 100 | 100 to 500
4 | Cc1nn(C2CCC(F)(F)CC2)c2sc(C(=O)N[C@H]3C[C@H](N4CCOCC4)C3)cc12 [II-18, 1-(4,4-difluorocyclo-hexyl)-3-methyl-N-((1r,3r)-3-morpho-linocyclobutyl)-1H-thieno[2,3-c]pyrazole-5-carboxamide] | 10 to 30 | 10 to 30
5 | Cc1nn(-c2ccccn2)c2sc(C(=O)N[C@H]3CC[C@H](N4CCOCC4)CC3)cc12 [Compound I-1, 3-methyl-N-((1r,4r)-4-morpholinocyclohex-yl)-1-(pyridin-2-yl)-1H-thieno[2,3-c]pyr-azole-5-carboxamide] | 100 to 500 | 100 to 500
6 | Cc1nn(CC(C)C)c2sc(C(=O)N[C@H]3CC[C@H](N4CCN(C5CC5)CC4)CC3)cc12 [II-6, N-((1r,4r)-4-(4-cyclo-propylpiperazin-1-yl)-cyclohexyl)-1-isobut-yl-3-methyl-1H-thieno[2,3-c]pyrazole-5-carboxamide] | 10 to 30 | 30 to 100
7 | Cc1nn(C2CCC(F)(F)CC2)c2sc(C(=O)N[C@H]3CC[C@H](N4CCOCC4)CC3)cc12 [II-13, 1-(4,4-difluorocyclo-hexyl)-3-methyl-N-((1r,4r)-4-morpho-linocyclohexyl)-1H-thieno[2,3-c]pyrazole-5-carboxamide] | 10 to 30 | 10 to 30
8 | CC(=O)N1CCN([C@H]2CC[C@H](NC(=O)c3cc4c(C)nn(C5C[C@@H](C)O[C@@H](C)C5)c4s3)CC2)CC1 (some centres unmarked) [II-2, N-((1r,4r)-4-(4-acetylpiperazin-1-yl)-cyclohexyl)-1-((2r,6s)-2,6-dimeth-yltetrahydro-2H-pyr-ran-4-yl)-3-methyl-1H-thieno[2,3-c]pyr-azole-5-carboxamide] | 30 to 100 | 100 to 500
9 | Cc1nn(-c2ccccc2Cl)c2sc(C(=O)N[C@H]3CC[C@H](N4CCOCC4)CC3)cc12 [Compound I-2, 1-(2-chlorophenyl)-3-methyl-N-((1r,4r)-4-morpholinocyclohex-yl)-1H-thieno[2,3-c] pyrazole-5-carbox-amide] | 10 to 30 | 10 to 30
10 | Cc1nn(C2CCC(F)(F)CC2)c2sc(C(=O)N[C@H]3C[C@H](N4CCN(C5CC5)CC4)C3)cc12 [II-33, N-((1r,3r)-3-(4-cyclo-propylpiperazin-1-yl)cyclobutyl)-1-(4,4-difluorocyclohexyl)-3-methyl-1H-thieno [2,3-c]pyrazole-5-carboxamide] | 10 to 30 | 10 to 30
11 | Cc1nn(C2CCC(F)(F)CC2)c2sc(C(=O)N[C@H]3CC[C@H](N4CCN(C5CC5)CC4)CC3)cc12 [II-15, N-((1r,4r)-4-(4-cyclo-propylpiperazin-1-yl)cyclohexyl)-1-(4,4-difluorocyclohexyl)-3-methyl-1H-thieno [2,3-c]pyrazole-5-carboxamide] | 10 to 30 | 10 to 30
12 | CC(=O)N1CCN([C@H]2CC[C@H](NC(=O)c3cc4c(C)nn(CC(C)C)c4s3)CC2)CC1 [II-16, N-((1r,4r)-4-(4-acet-ylpiperazin-1-yl)-cyclohexyl)-1-iso-butyl-3-methyl-1H thieno[2,3-c]pyrazole-5-carboxamide] | 10 to 30 | 30 to 100
13 | Cc1nn(C2CCC(F)(F)CC2)c2sc(C(=O)N[C@H]3CC[C@H](N4CCN(CC(F)F)CC4)CC3)cc12 [II-11, 1-(4,4-difluorocyclo-hexyl)-N-((1r,4r)-4-(4-(2,2-difluoroeth-yl)piperazin-1-yl)-cyclohexyl)-3-meth-yl-1H-thieno[2,3-c] pyrazole-5-carbox-amide] | 10 to 30 | 10 to 30

Next, values leading:

Row | IC50 [1] [nM] | IC50 [2] [nM] | SMILES
14 | 10 to 30 | 10 to 30 | Cc1nn(CC(C)C)c2sc(C(=O)N[C@H]3CC[C@H](N4CC(C#N)C4)CC3)cc12 [II-43, N-((1r,4r)-4-(3-cyanoazetidin-1-yl)-cyclohexyl)-1-iso-butyl-3-methyl-1H-thieno[2,3-c]pyrazole-5-carboxamide]
15 | < 10 | < 10 | Cc1nn(CC(C)(C)C)c2sc(C(=O)N[C@H]3CC[C@H](N4CCN(C(C)C)CC4)CC3)cc12 [II-31, N-((1r,4r)-4-(4-iso-propylpiperazin-1-yl)cyclohexyl)-3-methyl-1-neopentyl-1H-thieno[2,3-c]pyr-azole-5-carboxamide]
16 | 10 to 30 | 10 to 30 | CC(=O)N1CCN([C@H]2C[C@H](NC(=O)c3cc4c(C)nn(C5CCC(F)(F)CC5)c4s3)C2)CC1 [II-29, N-((1r,3r)-3-(4-acet-ylpiperazin-1-yl)-cyclobutyl)-1-(4,4-difluorocyclohexyl)-3-methyl-1H-thieno [2,3-c]pyrazole-5-carboxamide]
17 | < 10 | < 10 | CC(=O)N1CCN([C@H]2CC[C@H](NC(=O)c3cc4c(C)nn(-c5ccccc5Cl)c4s3)CC2)CC1 [Compound I-4, N-((1r,4r)-4-(4-acetyl-piperazin-1-yl)cyclo-hexyl)-1-(2-chloro-phenyl)-3-methyl-1H-thieno[2,3-c]pyrazole-5-carboxamide]
18 | < 10 | < 10 | CC(=O)N1CCN([C@H]2CC[C@H](NC(=O)c3cc4c(C)nn(CC(C)(C)C)c4s3)CC2)CC1 [II-37, N-((1r,4r)-4-(4-acet-ylpiperazin-1-yl)-cyclohexyl)-3-meth-yl-1-neopentyl-1H-thieno[2,3-c]pyr-azole-5-carboxamide]
19 | 10 to 30 | 10 to 30 | Cc1nn(-c2ccccc2Cl)c2sc(C(=O)N[C@H]3CC[C@H](N4CC(OC(F)F)C4)CC3)cc12 [Compound I-7, 1-(2-chlorophenyl)-N-((1r,4r)-4-(3-(difluoro-methoxy)azetidin-1-yl)-cyclohexyl)-3-methyl-1H-thieno[2,3-c]pyr-azole-5-carboxamide]
20 | < 10 | < 10 | Cc1nn(CC(C)(C)C)c2sc(C(=O)N[C@H]3CC[C@H](N4CCOCC4)CC3)cc12 [II-32, 3-methyl-N-((1r,4r)-4-morpholinocyclo-hexyl)-1-neopentyl-1H-thieno[2,3-c]pyr-azole-5-carboxamide]
21 | 10 to 30 | 30 to 100 | Cc1nn(-c2ccccc2Cl)c2sc(C(=O)N[C@H]3C[C@H](N4CCOCC4)C3)cc12 [Compound I-3, 1-(2-chlorophenyl)-3-methyl-N-((1r,3r)-3-morpholinocyclobut-yl)-1H-thieno[2,3-c] pyrazole-5-carbox-amide]
22 | < 10 | < 10 | Cc1nn(CC(C)(C)C)c2sc(C(=O)N[C@H]3CC[C@H](N4CC(C#N)C4)CC3)cc12 [II-36, N-((1r,4r)-4-(3-cyanoazetidin-1-yl)-cyclohexyl)-3-meth-yl-1-neopentyl-1H-thieno[2,3-c]pyr-azole-5-carboxamide]
23 | < 10 | < 10 | CC(=O)N1CCN([C@H]2CC[C@H](NC(=O)c3cc4c(C)nn(C5CCC(F)(F)CC5)c4s3)CC2)CC1 [II-9, N-((1r,4r)-4-(4-acet-ylpiperazin-1-yl)-cyclohexyl)-1-(4,4-difluorocyclohexyl)-3-methyl-1H-thieno [2,3-c]pyrazole-5-carboxamide]
24 | < 10 | 10 to 30 | Cc1nn(C2CCC(F)(F)CC2)c2sc(C(=O)N[C@H]3CC[C@H](N4CCN(CC(F)(F)F)CC4)CC3)cc12 [II-12, 1-(4,4-difluorocyclo-hexyl)-N-((1r,4r)-4-(4-(2,2-trifluoroeth-yl)piperazin-1-yl)-cyclohexyl)-3-meth-yl-1H-thieno[2,3-c] pyrazole-5-carbox-amide]
25 | < 10 | < 10 | Cc1nn(C2CCC(F)(F)CC2)c2sc(C(=O)N[C@H]3CC[C@H](N4CCN(C(C)C)CC4)CC3)cc12 [II-10, 1-(4,4-difluorocyclo-hexyl)-N-((1r,4r)-4-(4-isopropylpiper-azin-1-yl)cyclohex-yl)-3-methyl-1H-thieno[2,3-c]pyra-zole-5-carboxamide]
